Where two headings read alike, the source gives them in different places. Values belong to the compound of their own block, whether it stands above or below them.
Tests used:
plasma inosine = plasma inosine in Lewis Rats after intraperitoneal injection (HPLC); assay type: in vivo; settings: 30 mg (IA), twice per day, 10% DMSO aqueous carrier, vs vehicle controls, other compounds per procedure of Example 16
Procedure: A pharmaceutical composition for intraperitoneal injection is prepared for testing the compound (IA). An intraperitoneal injection solution containing the compound (IA) is dissolved in an aqueous carrier that contains ten percent DMSO.
The compound (IA) is intraperitoneally injected into Lewis Rats via the test composition of Example 15 to provide 30 mg of the compound (IA), with an injection given twice per day. Controls are used, which receive only the vehicle. At specific times after administration, the animals are sacrificed and plasma samples are prepared. The plasma is extracted with cold 0.5N HClO4 and neutralized with solid NH4 HCO3. After removal of perchlorate salts, the extract is subjected to HPLC on a reversed phase column (Spherisorb ODSI).
Compounds prepared as in Examples 10-14 are each made into a pharmaceutical formulation in accordance with the preparation of Example 15 and the resultant injectable solutions are tested in accordance with the procedure of Example 16.

[1] = target: T1, purine nucleoside phosphorylase (PNP) (Bos taurus, UniProt P55859); test: PNP enzyme assay, radiochemical formation of [14C]-hypoxanthine from [14C]-inosine, calf spleen enzyme; assay type: biochemical; settings: for enzyme-inhibition activity: tested as in Example 8
T1 construct: using calf spleen as the enzyme source; from tissue; host or cells: calf spleen
T1 sequence (P55859 1-289): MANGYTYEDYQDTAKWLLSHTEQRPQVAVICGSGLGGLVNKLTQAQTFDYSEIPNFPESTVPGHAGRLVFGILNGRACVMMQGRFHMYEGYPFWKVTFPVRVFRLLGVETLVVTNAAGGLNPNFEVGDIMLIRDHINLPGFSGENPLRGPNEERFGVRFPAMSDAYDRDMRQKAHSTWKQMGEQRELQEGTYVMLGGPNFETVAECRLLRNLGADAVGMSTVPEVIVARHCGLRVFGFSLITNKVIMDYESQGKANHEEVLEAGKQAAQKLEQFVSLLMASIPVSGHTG

SMILES: Nc1nc2c(C3=CCCCC3)c[nH]c2c(=O)[nH]1 [IA, 2-amino-7-(1-cyclohexenyl)-3H,5H-pyrrolo [3,2-d]pyrimidin-4-one]
increase in plasma inosine (plasma inosine): significant increase in plasma inosine

SMILES: Nc1nc2c(C3C=CCCC3)c[nH]c2c(=O)[nH]1 (centres unmarked) [IB, 2-amino-7-(2-cyclohexenyl)-3H, 5H-pyrrolo[3,2-d]pyrimidin-4-one]
enzyme-inhibition activity ([1]; calf spleen PNP): significant enzyme-inhibition activity

SMILES: Nc1nc2c(C3CC=CCC3)c[nH]c2c(=O)[nH]1 (centres unmarked) [IC, 2-amino-7-(3-cyclohexenyl)-3H, 5H-pyrrolo[3,2-d]-pyrimidin-4-one]
enzyme-inhibition activity ([1]; calf spleen PNP): significant enzyme-inhibition activity

IC50 [1]: 145 µM | IC50 ([1]; 1 mM phosphate, calf spleen PNP, read-out: IC50): 1.3 µM
SMILES: Nc1nc2c(C3CCCCC3)c[nH]c2c(=O)[nH]1 [ID, 2-amino-7-(cyclohexyl)-3H,5H-pyrrolo[3,2-d]-pyrimidin-4-one]
